For data set [1] the following is noted: JP,A, 6-22770; cited from earlier work.
For data set [2], the system named is Human Epidermic Cancer A431 Cells. Nature of the data set: Growth inhibition against Human Epidermic Cancer A431 cells (MTT). The data set is classed as cell-based. The conditions noted are these: read-out: 50% growth inhibitory concentration (IC50), A431. The method, then:
Growth Inhibition against Human Epidermic Cancer A431 Cells
Human Epidermic Cancer A431 cells were put into a 96-well microtiter plate (Nunc #167008) at 3×10^3 cells/well, and cultured in a 5% CO2 incubator at 37° C. for 24 hours. Each of 3 μg/ml GEX1 compounds was stepwise diluted. Each dilution was put into each well in an amount of 50 μl. The final concentration of the resulting suspension, in the wells of the plate was controlled to be at most 1 μg/ml. The cells were further cultured in the 5% CO2 incubator at 37° C. for 72 hours. Five hours before the termination of the incubation, MTT [3-(4,5-dimethylthiazo-2-yl)-2,5-diphenyltetrazolium bromide, Sigma Co., St. Louis, Mo.] dissolved in a medium as used for the culturing was put into each well in an amount of 50 μl, the final concentration of MTT added in each well being 1 mg/ml. After the culturing, DMSO was added to each well in an amount of 150 μl, followed by vigorous stirring with a plate mixer to completely dissolve crystals of MTT-formazan. The absorbance at 550 nm was measured by using a microplate reader MTP-32 (Corona Electric Co., Ltd.). and the cell growth inhibiting activity of each GEX1 compound tested was expressed in terms of 50% growth inhibitory concentration (IC50).

Data set [3] can be described thus: Solubility (physicochemical data).
The mark [4] stands for this setting: A-431, A431 cells, 72 hours, MTT, absorbance at 550 nm.

The values below come from patent US5719179A, “Compound GEX1” (Kyowa Hakko Kogyo Co., Ltd., priority 1995, dated 1998).

Each structure is given as a SMILES string. ≈ marks a conversion by molar mass, not a printed value. Where two headings read alike, the source gives them in different places.

Regarding `COC(C(C)O)C(C)C1OC1(C)CC(C)C=CC=C(C)C1OC(CC(=O)O)CCC1C` (centres unmarked) [TAN-1609], the antitumor activity result in data set [1] is reported as “has antitumor activity”.
Take `COC(C(C)O)C(C)C1OC1(C)CC(C)C=CC=C(C)C1OC(CC(=O)OC2OC(C(=O)O)C(O)C(O)C2O)CCC1C` (centres unmarked) [GEX1Q3]: the IC50 in data set [2] (A-431, 72 h) was determined as 0.02 mg/L (≈ 0.0325 µM). Further, in data set [3], the Solubility in chloroform result is recorded as “hardly soluble”, the “Solubility in dimethylsulfoxide (DMSO)” value is on record as “Soluble”, the Solubility in hexane result is “hardly soluble” and the Solubility in methanol result is “Soluble”. Also, the Solubility in water entry in data set [3] (water) was “Soluble”.
`CC(=CC=CC(C)CC1(C)OC1C(C)C(O)C(C)O)C1OC(CC(=O)O)CCC1C` (centres unmarked) [GEX1Q5]: the IC50 in data set [2] (setting [4]) was 0.0053 mg/L (≈ 0.0125 µM). In addition, in data set [3], the “Solubility in dimethylsulfoxide (DMSO)” value was “Soluble”, the Solubility in hexane entry is given as “hardly soluble” and the Solubility in methanol entry was “Soluble”.
Take `COC(C(C)O)C(C)C1OC1(C)CC(C)(O)C=CC=C(C)C1OC(CC(=O)O)CCC1C` (centres unmarked) [GEX1Q2]: the IC50 in data set [2] (A-431, 72 h) came out at 0.23 mg/L (≈ 0.506 µM). For the same compound, in data set [3], the Solubility in chloroform result is on record as “hardly soluble”, the “Solubility in dimethylsulfoxide (DMSO)” value is listed as “Soluble”, the Solubility in hexane result was “hardly soluble” and the Solubility in methanol result is listed as “Soluble”.
Turning to `COC(C(C)O)C(C)C1OC1(C)CC(C)C=CC=C(CO)C1OC(CC(=O)O)CCC1C` (centres unmarked) [GEX1Q4], the IC50 in data set [2] (A-431, 72 h) was 0.45 mg/L (≈ 0.99 µM). Further, in data set [3], the Solubility in chloroform entry is listed as “hardly soluble”, the “Solubility in dimethylsulfoxide (DMSO)” value is listed as “Soluble”, the Solubility in hexane entry was “hardly soluble” and the Solubility in methanol result was “Soluble”.
As for `COC(C(C)O)C(C)C1OC1(C)CC(C)C=CC=C(C)C1OC(CC(=O)O)CC(O)C1C` (centres unmarked) [GEX1Q1], the IC50 in data set [2] (setting [4]) worked out at 0.42 mg/L (≈ 0.924 µM). Besides, in data set [3], the Solubility in chloroform result is “hardly soluble”, the “Solubility in dimethylsulfoxide (DMSO)” value is on record as “Soluble”, the Solubility in hexane result was “hardly soluble” and the Solubility in methanol result was “Soluble”.
